PubChem BioAssay AID1117324 (Cheminformatics & Chemogenomics Research Group (CCRG), …, 2015)
Calls of active or inactive are those of the source. The rule behind the calls is not given here.

Test system: VEGF-stimulated ADSC/ECFC co-culture, nuclear area imaging
Assay: nuclear area loss in endothelial-stromal co-culture, dose response, cell-based, VEGF stimulation, IC50 (AID 1117324)

Structure (SMILES) | IC50
CC1(C)[C@H](C=C(Cl)Cl)[C@@H]1C(=O)OCc1c(F)c(F)cc(F)c1F | > 10 µM (inactive)
CSc1ccc2c(c1)N(CCC1CCCCN1C)c1ccccc1S2 (stereo not drawn) | 9.24 µM (inactive)
C[C@@H]1C[C@H]2[C@@H]3CCC4=CC(=O)C=C[C@]4(C)[C@@]3(Cl)[C@@H](O)C[C@]2(C)[C@@]1(OC(=O)c1ccco1)C(=O)CCl | > 10 µM (inactive)
O=C(NC1CCN(CCc2c[nH]c3ccccc23)CC1)c1ccccc1 | > 10 µM (inactive)
O=C1C2CC=CCC2C(=O)N1SC(Cl)(Cl)Cl (stereo not drawn) | > 10 µM (inactive)
Cc1ccccc1C(=O)Nc1ccc(C(=O)N2CCCC(N(C)C)c3ccccc32)cc1 (stereo not drawn) | > 10 µM (inactive)
CCCCC(CC)COC(=O)C(C#N)=C(c1ccccc1)c1ccccc1 (stereo not drawn) | 3.29 µM
Clc1ccc(Nc2nnc(Cc3ccncc3)c3ccccc23)cc1 | > 10 µM (inactive)
O=C(O)CCC(=O)OC[C@@H](NC(=O)C(Cl)Cl)[C@H](O)c1ccc([N+](=O)[O-])cc1 | > 10 µM (inactive)
CC12CCC(CC1)C(C)(C)O2 | > 10 µM (inactive)
C=CC(C)(O)CCC=C(C)CCC=C(C)C (stereo not drawn) | > 10 µM (inactive)
Clc1ccccc1C(c1ccccc1)(c1ccccc1)n1ccnc1 | > 10 µM (inactive)
ClC1=C(Cl)C2(Cl)C(CBr)CC1(Cl)C2(Cl)Cl (stereo not drawn) | 9.97 µM (inactive)
CCCCCCCCCCCC[N+](C)(C)Cc1ccccc1 | 6.93 µM (inactive)
Cc1cc(OCCOCC[N+](C)(C)Cc2ccccc2)ccc1C(C)(C)CC(C)(C)C | 8.7 µM (inactive)
O[C@@H](c1cc(C(F)(F)F)nc2c(C(F)(F)F)cccc12)[C@H]1CCCCN1 | 8.61 µM (inactive)
CC(C)(C)C(=O)OCOP(=O)(COCCn1cnc2c(N)ncnc21)OCOC(=O)C(C)(C)C | > 10 µM (inactive)
Oc1c(Br)cc(Br)c2cccnc12 | > 10 µM (inactive)
CCCCCCCCCCCCCCCCCCNC(=O)OC1CCN(C(=O)OC[C@H](COC(=O)N(Cc2cccc[n+]2CC)C(=O)c2ccccc2OC)OC)CC1 | > 10 µM (inactive)
CC[C@]1(O)C[C@@H]2CN(CCc3c([nH]c4ccccc34)[C@@](C(=O)OC)(c3cc4c(cc3OC)N(C)[C@H]3[C@@](O)(C(=O)OC)[C@H](OC(C)=O)[C@]5(CC)C=CCN6CC[C@]43[C@@H]65)C2)C1 | > 10 µM (inactive)
O=C1OC(OC(=O)c2cccnc2Nc2cccc(C(F)(F)F)c2)c2ccccc21 (stereo not drawn) | > 10 µM (inactive)
CCCCCN=C(N)N/N=C/c1c[nH]c2ccc(OC)cc12 | 7.17 µM (inactive)
CC(=O)O[C@@]12CO[C@@H]1C[C@H](O)[C@@]1(C)C(=O)[C@H](O)C3=C(C)[C@@H](OC(=O)[C@H](O)[C@@H](NC(=O)OC(C)(C)C)c4ccccc4)C[C@@](O)([C@@H](OC(=O)c4ccccc4)[C@H]21)C3(C)C | > 10 µM (inactive)
C[n+]1cc2c3c(ccc2c2ccc4cc5c(cc4c21)OCO5)OCO3 | 0.97 µM

Structure (SMILES) | IC50
COc1cc([C@@H]2c3cc4c(cc3[C@H](O)[C@H]3COC(=O)[C@H]23)OCO4)cc(OC)c1OC | > 10 µM (inactive)
CCN(CC)C(=O)/C(C#N)=C/c1cc(O)c(O)c([N+](=O)[O-])c1 | > 10 µM (inactive)
Oc1c(I)cc(I)c2cccnc12 | > 10 µM (inactive)
CCCn1cnc2c1c(=O)n(CCCCC(C)=O)c(=O)n2C | > 10 µM (inactive)
COc1ccccc1N1CCN(CC(O)COc2cc(OC)c(OC)c(OC)c2)CC1 (stereo not drawn) | > 10 µM (inactive)
Oc1c(Cl)cc(Cl)cc1Sc1cc(Cl)cc(Cl)c1O | > 10 µM (inactive)
CC=CC1C(C(=O)OCc2c(F)c(F)c(COC)c(F)c2F)C1(C)C (stereo not drawn) | > 10 µM (inactive)
COc1ccc(-c2ccc3cc(C(=O)O)ccc3c2)cc1C12CC3CC(CC(C3)C1)C2 | > 10 µM (inactive)
CCCCCCCCCCCCCCCC(=O)OCC=C(C)C=CC=C(C)C=CC1=C(C)CCCC1(C)C | > 10 µM (inactive)
CC(=O)N(O)CCCCCNC(=O)CCC(=O)N(O)CCCCCNC(=O)CCC(=O)N(O)CCCCCN | > 10 µM (inactive)
Cc1onc(-c2c(Cl)cccc2Cl)c1C(=O)Cl | > 10 µM (inactive)
O=C(OCCO)c1ccccc1O | > 10 µM (inactive)
CC(=O)O[C@H]1C[C@H](O[C@H]2[C@@H](O)C[C@H](O[C@@H]3[C@@H](O)C[C@H](O[C@H]4CC[C@@]5(C)[C@H](CC[C@@H]6[C@H]5C[C@@H](O)[C@]5(C)[C@@H](C7=CC(=O)OC7)CC[C@]65O)C4)O[C@@H]3C)O[C@@H]2C)O[C@H](C)[C@H]1O[C@@H]1O[C@H](CO)[C@@H](O)[C@H](O)[C@@H]1O | 0.279 µM
O=C(Nc1ccc(Oc2ccc(Cl)cc2)c(Cl)c1)c1cc(I)cc(I)c1O | 6.57 µM (inactive)
Cc1cccc(C)c1NC(=O)CN1CCN(CCCC(c2ccc(F)cc2)c2ccc(F)cc2)CC1 | 9.37 µM (inactive)
CN(C)c1ccc(C(=C2C=CC(=[N+](C)C)C=C2)c2ccc(N(C)C)cc2)cc1 | 1.83 µM
Cn1ccc2cc3c(cc21)CCN3C(=O)Nc1cccnc1 | > 10 µM (inactive)
CCN1CCC[C@H]1CNC(=O)c1c(OC)ccc(Br)c1OC | > 10 µM (inactive)
O=C1NC2CCCCN2C12CCN(CCCN1c3ccccc3CCc3ccc(Cl)cc31)CC2 (stereo not drawn) | > 10 µM (inactive)
CCCCc1oc2ccc(NS(C)(=O)=O)cc2c1C(=O)c1ccc(OCCCN(CCCC)CCCC)cc1 | 7.56 µM (inactive)
CCCCC(CC)CN=C(N)NC(N)=NCCCCCCN=C(N)NC(N)=NCC(CC)CCCC (stereo not drawn) | > 10 µM (inactive)
O=c1[nH]c(=O)n([C@H]2C[C@H](O)[C@@H](CO)O2)cc1Br | > 10 µM (inactive)
COC(=O)c1nc(Cl)c(Cl)nc1N | 6.8 µM (inactive)
CN(C)c1ccc2nc3ccc(=[N+](C)C)cc-3sc2c1 | > 10 µM (inactive)

Structure (SMILES) | IC50
C/C(=C(/OCCOc1ccc(Cl)cc1)c1ccc(Cl)cc1Cl)n1ccnc1 | 9.42 µM (inactive)
Clc1ccc(C(Cn2ccnc2)OCc2ccc(Sc3ccccc3)cc2)c(Cl)c1 (stereo not drawn) | > 10 µM (inactive)
COc1cccc(CCc2ccccc2OCC(CN(C)C)OC(=O)CCC(=O)O)c1 (stereo not drawn) | > 10 µM (inactive)
O=[N+]([O-])C(Br)(CO)CO | > 10 µM (inactive)
CCC(C(=O)OCCOCCN(CC)CC)c1ccccc1 (stereo not drawn) | > 10 µM (inactive)
C=CCCCCCCCCC(=O)OC | > 10 µM (inactive)
Cc1cc(N)c2ccccc2[n+]1CCCCCCCCCC[n+]1c(C)cc(N)c2ccccc21 | > 10 µM (inactive)
COc1ccc2cc1Oc1ccc(cc1)C[C@H]1c3c(cc4c(c3Oc3cc5c(cc3OC)CCN(C)[C@@H]5C2)OCO4)CCN1C | > 10 µM (inactive)
O=C1NCN(c2ccccc2)C12CCN(CCCC(c1ccc(F)cc1)c1ccc(F)cc1)CC2 | 8.09 µM (inactive)
O=C(CBr)Nc1ccc(Cl)cc1C(=O)c1ccccc1F | > 10 µM (inactive)
C#C[C@]1(OC(C)=O)CC[C@H]2[C@@H]3CCC4=C/C(=N/O)CC[C@@H]4[C@H]3CC[C@@]21CC | > 10 µM (inactive)
Cc1cccc(C)c1NC(=O)CC12CCCN1CCC2 | > 10 µM (inactive)
Cc1ccc(Nc2c(F)cccc2Cl)c(CC(=O)O)c1 | > 10 µM (inactive)
NC(=O)c1cccnc1 | > 10 µM (inactive)
COc1ccc(/C=C/C(=O)c2ccc(OC)cc2OC)cc1 | > 10 µM (inactive)
O=C(OCc1ccccc1)c1cccnc1 | > 10 µM (inactive)
CC1=C(/C=C/C(C)=C/C=C/C(C)=C/C(=O)Nc2ccc(O)cc2)C(C)(C)CCC1 | 6.24 µM (inactive)
CO[C@@]12[C@H](COC(N)=O)C3=C(C(=O)C(C)=C(N)C3=O)N1C[C@@H]1N[C@@H]12 | 5.96 µM (inactive)
CN1CCN(C2Cc3ccccc3Sc3ccc(Cl)cc32)CC1 (stereo not drawn) | > 10 µM (inactive)
O=c1[nH]sc2cc(Cl)ccc12 | 9.43 µM (inactive)
CCCSc1ccc2nc(NC(=O)OC)[nH]c2c1 | > 10 µM (inactive)
O[C@@H](CNC[C@H](O)[C@H]1CCc2cc(F)ccc2O1)[C@@H]1CCc2cc(F)ccc2O1 | > 10 µM (inactive)
COC(=O)C1=C(C)NC(C)=C(C(=O)O[C@@H]2CCCN(Cc3ccccc3)C2)[C@@H]1c1cccc([N+](=O)[O-])c1 | > 10 µM (inactive)
OCCN1CCN(CCCN2c3ccccc3Sc3ccc(C(F)(F)F)cc32)CC1 | > 10 µM (inactive)

Structure (SMILES) | IC50
COc1cc2nc(N3CCN(C(=O)C4COc5ccccc5O4)CC3)nc(N)c2cc1OC (stereo not drawn) | > 10 µM (inactive)
COc1cc(C=C2CCC/C(=C\c3ccc(O)c(OC)c3)C2=O)ccc1O | 6.98 µM (inactive)
Cc1ccc(Nc2nccc(N(C)c3ccc4c(C)n(C)nc4c3)n2)cc1S(N)(=O)=O | > 10 µM (inactive)
C[C@@H](NCCCc1cccc(C(F)(F)F)c1)c1cccc2ccccc12 | > 10 µM (inactive)
Cc1c(C)c2c(c(C)c1OC(=O)CCC(=O)O)CC[C@@](C)(CCC[C@H](C)CCC[C@H](C)CCCC(C)C)O2 | > 10 µM (inactive)
COc1ccc2cc3[n+](cc2c1OC)CCc1cc2c(cc1-3)OCO2 | > 10 µM (inactive)
CC(CC=O)CCCC(C)(C)O (stereo not drawn) | > 10 µM (inactive)
C[C@H](O)CN(C)C | > 10 µM (inactive)
Cc1cc(O)c2ccccc2c1O | 9.85 µM (inactive)
COC(=O)Nc1nc2ccc(C(=O)C3CC3)cc2[nH]1 | > 10 µM (inactive)
CC(C)(C)CC(C)(C)c1ccc(O)cc1 | 9.11 µM (inactive)
O=C1CC(c2ccc(Cl)cc2)CC(=O)N1 | > 10 µM (inactive)
CN1CCN(CCCN2c3ccccc3Sc3ccc(C(F)(F)F)cc32)CC1 | > 10 µM (inactive)
C[C@@]12C(=O)OC(=O)[C@]1(C)C1CCC2O1 | 8.33 µM (inactive)
CCc1cccc(N(C)C(N)=Nc2cccc3ccccc23)c1 | > 10 µM (inactive)
CCC1Nc2cc(Cl)c(S(N)(=O)=O)cc2S(=O)(=O)N1 (stereo not drawn) | > 10 µM (inactive)
O=C(O)C1CCC1 | > 10 µM (inactive)
OCCN1CCN(CCCN2c3ccccc3Sc3ccc(Cl)cc32)CC1 | > 10 µM (inactive)
Clc1ccc(CSC(Cn2ccnc2)c2ccc(Cl)cc2Cl)cc1 (stereo not drawn) | 8.76 µM (inactive)
COC(=O)c1ccccc1C(=O)OC | > 10 µM (inactive)
CNC(=O)Oc1cccc2ccccc12 | > 10 µM (inactive)
